The results in this text go back to PMC12459184, “Design, synthesis, and bioevaluation of pyrazole-containing tubulin polymerisation inhibitors based on conformational constraint strategy” (Journal of Enzyme Inhibition and Medicinal Chemistry, 2025).

The subject of assay [1] is PC-3 cells. Put plainly: Colony formation assay. In kind it is cell-based, human. The following applies: PC-3, 20 nM, 24 h treatment then one week culture. An excerpt: Colony formation assay was selected to assess the effect of 4k and 5a on clonogenic formation of PC-3 cells.
PC-3 cells in logarithmic phase were harvested and seeded onto 12-well cell plates at a density of 1 × 10^3 cells per well. […] Then the medium was removed, and cells were washed with PBS and added fresh medium containing 10% FBS. The cells were continued to culture for one week. The medium was removed, and the cells were fixed with 4% paraformaldehyde and subsequently stained with crystal violet solution. Images were taken and analysed by Fiji/ImageJ software.

Assay [2] has as its system PC-3 cells. Put plainly: Cell apoptosis analysis, Annexin V-FITC/PI flow cytometry. In kind it is cell-based, human. Particulars: 48 h. The method, then:
To investigate the effect of 4k and 5a on cell apoptosis, flow cytometry was used to analyse the cell apoptosis of PC-3 cells. […] Early apoptosis cells could only be stained by Annexin V-FITC, while late apoptosis cells could be stained by both Annexin V-FITC and PI.
PC-3 cells in logarithmic phase were harvested and seeded onto 6-well cell plates at a density of 2.5 × 10^5 cells per well, and were cultured for 24 h. […] The cells were digested using trypsin and were harvested, washed twice with PBS, and resuspended in 500 μL binding buffer, followed by the addition of 100 μL of the cell suspension to 5 μL of Annexin V-FITC and 5 μL of PI. After stained for 15 min in a dark at room temperature, the samples were added 400 μL of binding buffer and detected by FACScan flow cytometry (BectoneDickinson, Franklin Lakes, NJ, USA).
(Flow cytometry measures light scatter and fluorescence of single cells or particles in a stream.)

Take `COc1cc(C(=O)c2nn(-c3ccc(N)cc3)cc2N)cc(OC)c1OC` [4k, (4-amino-1–(4-aminophenyl)-1H-pyrazol-3-yl)(3,4,5-trimethoxyphenyl)methanone]: the “colony formation compared to control” value in the assay with PC-3 cells [1] is 5.7%. For the same compound, the “percentage of apoptosis cells” value in the assay with PC-3 cells [2] (PC-3, 10 nM, vehicle 18.3%) is on record as 27.1%; in the assay on PC-3 cells [2] (PC-3, 25 nM, vehicle 18.3%) it was 34.1%.

On to `COc1cc(C2=NCC(=O)Nc3cn(-c4ccccc4)nc32)cc(OC)c1OC` [5a, 2-Phenyl-8–(3,4,5-trimethoxyphenyl)-2,6-dihydropyrazolo[4,3-e][1,4]diazepin-5(4H)-one], for which the “colony formation compared to control” value with PC-3 cells [1] turned out to be 34.9%. The “percentage of apoptosis cells” value in the assay on PC-3 cells [2] (PC-3, 100 nM, vehicle 18.2%) is given as 26.6%; in the assay with PC-3 cells [2] (PC-3, 200 nM, vehicle 18.2%), 41.5%.
